According to PubChem BioAssay (NCI):
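How tested: cells in 96-well plates exposed to compound for 48 hours at five concentrations. TGI is the concentration that stops growth completely.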

Columns and labels:
Test in all cases: inhibition of tumour cell growth, NCI panel, 48 h
SNB-19 CNS = tested on: SNB-19 CNS
BT-549 breast = tested on: BT-549 breast
OVCAR-5 ovarian = tested on: OVCAR-5 ovarian
M14 melanoma = tested on: M14 melanoma
HCT-116 colon = tested on: HCT-116 colon
786-0 renal = tested on: 786-0 renal
NCI-H23 lung = tested on: NCI-H23 lung
DU-145 prostate = tested on: DU-145 prostate
A549 NSCLC = tested on: A549 NSCLC
SW-620 colon = tested on: SW-620 colon
SN12C renal = tested on: SN12C renal
NCI-H226 lung = tested on: NCI-H226 lung
SK-OV-3 ovarian = tested on: SK-OV-3 ovarian
KM12 colon = tested on: KM12 colon
SF-268 CNS = tested on: SF-268 CNS
OVCAR-3 ovarian = tested on: OVCAR-3 ovarian
OVCAR-4 ovarian = tested on: OVCAR-4 ovarian
PC-3 prostate = tested on: PC-3 prostate
MDA-MB-231 breast = tested on: MDA-MB-231 breast
CAKI-1 renal = tested on: CAKI-1 renal
HS 578T breast = tested on: HS 578T breast
UACC-62 melanoma = tested on: UACC-62 melanoma
MOLT-4 leukemia = tested on: MOLT-4 leukemia
MALME-3M melanoma = tested on: MALME-3M melanoma
HOP-62 NSCLC = tested on: HOP-62 NSCLC
LOX IMVI melanoma = tested on: LOX IMVI melanoma
OVCAR-8 ovarian = tested on: OVCAR-8 ovarian
SR leukemia = tested on: SR leukemia
SF-295 CNS = tested on: SF-295 CNS
U251 CNS = tested on: U251 CNS
NCI-H522 lung = tested on: NCI-H522 lung
K-562 leukemia = tested on: K-562 leukemia
HOP-92 NSCLC = tested on: HOP-92 NSCLC
COLO 205 colon = tested on: COLO 205 colon
SK-MEL-5 melanoma = tested on: SK-MEL-5 melanoma
T-47D breast = tested on: T-47D breast
MCF7 breast = tested on: MCF7 breast
SK-MEL-28 melanoma = tested on: SK-MEL-28 melanoma
ACHN renal = tested on: ACHN renal
RPMI-8226 leukemia = tested on: RPMI-8226 leukemia
SK-MEL-2 melanoma = tested on: SK-MEL-2 melanoma
TK-10 renal = tested on: TK-10 renal
SNB-75 CNS = tested on: SNB-75 CNS
MDA-MB-435 = tested on: MDA-MB-435
HT29 colon = tested on: HT29 colon
IGROV1 ovarian = tested on: IGROV1 ovarian
EKVX NSCLC = tested on: EKVX NSCLC
HCT-15 colon = tested on: HCT-15 colon
MDA-N = tested on: MDA-N
A498 renal = tested on: A498 renal
CCRF-CEM leukemia = tested on: CCRF-CEM leukemia
NCI-H460 lung = tested on: NCI-H460 lung
NCI/ADR-RES ovarian = tested on: NCI/ADR-RES ovarian
UO-31 renal = tested on: UO-31 renal
UACC-257 melanoma = tested on: UACC-257 melanoma
RXF 393 renal = tested on: RXF 393 renal
HCC-2998 colon = tested on: HCC-2998 colon

With `CN(C(=O)Nc1ccc(Cl)c(Cl)c1)C1CCCC[C@@H]1N1CCCC1` (stereo partly specified) the TGI (SNB-19 CNS) was greater than 100 µM, the TGI (BT-549 breast) was greater than 100 µM and the TGI (OVCAR-5 ovarian) was greater than 100 µM. The TGI (M14 melanoma) was 36.1 µM, the TGI (HCT-116 colon) was greater than 100 µM and the TGI (786-0 renal) was greater than 100 µM. It also gave a TGI (NCI-H23 lung) greater than 100 µM, a TGI (DU-145 prostate) greater than 100 µM and a TGI (A549 NSCLC) greater than 100 µM. The TGI (SW-620 colon) was greater than 100 µM, the TGI (SN12C renal) was greater than 100 µM and the TGI (NCI-H226 lung) was 39.5 µM. It also gave a TGI (SK-OV-3 ovarian) greater than 100 µM, a TGI (KM12 colon) greater than 100 µM and a TGI (SF-268 CNS) of 94.7 µM. It also gave a TGI (OVCAR-3 ovarian) greater than 100 µM, a TGI (OVCAR-4 ovarian) greater than 100 µM and a TGI (PC-3 prostate) greater than 100 µM. For the same compound, the TGI (MDA-MB-231 breast) was greater than 100 µM, the TGI (CAKI-1 renal) was greater than 100 µM and the TGI (HS 578T breast) was 73.9 µM. For the same compound, the TGI (UACC-62 melanoma) was 40.2 µM, the TGI (MOLT-4 leukemia) was 96.8 µM and the TGI (MALME-3M melanoma) was 37.8 µM. The TGI (HOP-62 NSCLC) was greater than 100 µM, the TGI (LOX IMVI melanoma) was greater than 100 µM and the TGI (OVCAR-8 ovarian) was greater than 100 µM. The TGI (SR leukemia) was greater than 100 µM, the TGI (SF-295 CNS) was greater than 100 µM and the TGI (U251 CNS) was greater than 100 µM. For the same compound, the TGI (NCI-H522 lung) was greater than 100 µM, the TGI (K-562 leukemia) was greater than 100 µM and the TGI (HOP-92 NSCLC) was greater than 100 µM. The TGI (COLO 205 colon) was 35.7 µM, the TGI (SK-MEL-5 melanoma) was 30.6 µM and the TGI (T-47D breast) was greater than 100 µM. The TGI (MCF7 breast) was 87.4 µM, the TGI (SK-MEL-28 melanoma) was 47.6 µM and the TGI (ACHN renal) was greater than 100 µM. For the same compound, the TGI (RPMI-8226 leukemia) was 64.1 µM, the TGI (SK-MEL-2 melanoma) was greater than 100 µM and the TGI (TK-10 renal) was greater than 100 µM. The TGI (SNB-75 CNS) was greater than 100 µM, the TGI (MDA-MB-435) was greater than 100 µM and the TGI (HT29 colon) was greater than 100 µM. It also gave a TGI (IGROV1 ovarian) greater than 100 µM, a TGI (EKVX NSCLC) greater than 100 µM and a TGI (HCT-15 colon) greater than 100 µM. The TGI (MDA-N) was greater than 100 µM, the TGI (A498 renal) was 55.9 µM and the TGI (CCRF-CEM leukemia) was greater than 100 µM. The TGI (NCI-H460 lung) was greater than 100 µM, the TGI (NCI/ADR-RES ovarian) was greater than 100 µM and the TGI (UO-31 renal) was 84.2 µM. It also gave a TGI (UACC-257 melanoma) of 39.4 µM and a TGI (RXF 393 renal) greater than 100 µM.
In the case of `CCOC(=O)Nc1cc(NC(/C=N/NC(C)=O)C(=O)OCC)c(OC)cc1NC(C)=O` (stereo unspecified), the TGI (SNB-19 CNS) is reported as greater than 100 µM, the TGI (BT-549 breast) is reported as greater than 100 µM and the TGI (OVCAR-5 ovarian) is reported as greater than 100 µM. For the same compound, the TGI (M14 melanoma) was greater than 100 µM, the TGI (HCT-116 colon) was greater than 100 µM and the TGI (786-0 renal) was greater than 100 µM. It also gave a TGI (NCI-H23 lung) greater than 100 µM, a TGI (DU-145 prostate) greater than 100 µM and a TGI (A549 NSCLC) greater than 100 µM. For the same compound, the TGI (SW-620 colon) was greater than 100 µM, the TGI (SN12C renal) was greater than 100 µM and the TGI (NCI-H226 lung) was greater than 100 µM. It also gave a TGI (SK-OV-3 ovarian) greater than 100 µM, a TGI (KM12 colon) greater than 100 µM and a TGI (SF-268 CNS) greater than 100 µM. The TGI (OVCAR-3 ovarian) was greater than 100 µM, the TGI (OVCAR-4 ovarian) was greater than 100 µM and the TGI (PC-3 prostate) was greater than 100 µM. It also gave a TGI (MDA-MB-231 breast) greater than 100 µM, a TGI (CAKI-1 renal) greater than 100 µM and a TGI (HS 578T breast) greater than 100 µM. It also gave a TGI (HCC-2998 colon) greater than 100 µM, a TGI (UACC-62 melanoma) greater than 100 µM and a TGI (MOLT-4 leukemia) greater than 100 µM. For the same compound, the TGI (MALME-3M melanoma) was greater than 100 µM, the TGI (HOP-62 NSCLC) was greater than 100 µM and the TGI (OVCAR-8 ovarian) was greater than 100 µM. The TGI (SR leukemia) was greater than 100 µM, the TGI (SF-295 CNS) was greater than 100 µM and the TGI (U251 CNS) was greater than 100 µM. It also gave a TGI (K-562 leukemia) greater than 100 µM, a TGI (HOP-92 NSCLC) greater than 100 µM and a TGI (COLO 205 colon) greater than 100 µM. For the same compound, the TGI (SK-MEL-5 melanoma) was greater than 100 µM, the TGI (T-47D breast) was greater than 100 µM and the TGI (MCF7 breast) was greater than 100 µM. The TGI (SK-MEL-28 melanoma) was greater than 100 µM, the TGI (ACHN renal) was greater than 100 µM and the TGI (RPMI-8226 leukemia) was greater than 100 µM. The TGI (SK-MEL-2 melanoma) was greater than 100 µM, the TGI (TK-10 renal) was greater than 100 µM and the TGI (SNB-75 CNS) was greater than 100 µM. The TGI (MDA-MB-435) was greater than 100 µM, the TGI (HT29 colon) was greater than 100 µM and the TGI (IGROV1 ovarian) was greater than 100 µM. For the same compound, the TGI (EKVX NSCLC) was greater than 100 µM, the TGI (HCT-15 colon) was greater than 100 µM and the TGI (MDA-N) was greater than 100 µM. It also gave a TGI (A498 renal) greater than 100 µM, a TGI (CCRF-CEM leukemia) greater than 100 µM and a TGI (NCI-H460 lung) greater than 100 µM. It also gave a TGI (NCI/ADR-RES ovarian) greater than 100 µM, a TGI (UO-31 renal) greater than 100 µM and a TGI (UACC-257 melanoma) greater than 100 µM. The TGI (RXF 393 renal) was greater than 100 µM.
